Data taken from patent EP4316461A1, “A PRESERVATIVE COMPOSITION” (BRAIN Biotech AG, priority 2022, dated 2024).

Legend:
Type in all cases: cell-based
[1] = tested on: Enterobacter cloacae; assay: Antimicrobial activity (MIC); details: Strain ID DSM 6234; potato dextrose broth pH 3.8
[2] = tested on: Actinomyces viscosus; assay: Antimicrobial activity (MIC); details: Strain ID DSM43798; potato dextrose broth pH 3.8
[3] = tested on: Alicyclobacillus acidoterrestris; assay: Antimicrobial activity (MIC); details: Strain ID DSM 2498; potato dextrose broth pH 3.8
[4] = tested on: Saccharomyces cerevisiae; assay: Antimicrobial activity (MIC); details: Strain ID DSM 2548; potato dextrose broth pH 3.8
[5] = tested on: Leuconostoc lactis; assay: Antimicrobial activity (MIC); details: Strain ID DSM 20202; potato dextrose broth pH 3.8
[6] = tested on: Malassezia furfur; assay: Antimicrobial activity (MIC); details: Strain ID DSM 6170; potato dextrose broth pH 3.8
[7] = tested on: Leuconostoc mesenteroides ssp. mesenteroides; assay: Antimicrobial activity (MIC); details: Strain ID DSM 20343; potato dextrose broth pH 3.8
[8] = tested on: Clostridium perfringens; assay: microbe, parasite or virus in culture; details: Strain ID DSM 756; potato dextrose broth pH 3.8
[9] = tested on: Cladosporium cladosporioides; assay: Antimicrobial activity (MIC); details: Strain ID DSM19653; potato dextrose broth pH 3.8
[10] = tested on: Candida albicans; assay: Antimicrobial activity (MIC); details: Strain ID ATCC10231; potato dextrose broth pH 3.8
[11] = tested on: Corynebacterium xerosis; assay: Antimicrobial activity (MIC); details: Strain ID DSM 20743; potato dextrose broth pH 3.8
[12] = tested on: Gluconacetobacter liquefaciens; assay: Antimicrobial activity (MIC); details: Strain ID DSM 5603; potato dextrose broth pH 3.8
[13] = tested on: Lactobacillus paracasei ssp. paracasei; assay: Antimicrobial activity (MIC); details: Strain ID DSM 46331; potato dextrose broth pH 3.8
[14] = tested on: Zygosaccharomyces bailii; assay: Antimicrobial activity (MIC); details: Strain ID DSM 70834; potato dextrose broth pH 3.8
[15] = tested on: Cutibacterium acnes; assay: Antimicrobial activity (MIC); details: Strain ID DSM 1897; potato dextrose broth pH 3.8
[16] = tested on: Porphyromonas gingivalis; assay: Antimicrobial activity (MIC); details: Strain ID DSM 20709; potato dextrose broth pH 3.8
[17] = tested on: Listeria monocytogenes; assay: Antimicrobial activity (MIC); details: Strain ID DSM 20600; potato dextrose broth pH 3.8
[18] = tested on: Salmonella enterica ssp. enterica Ser. typhimurium; assay: Antimicrobial activity (MIC); details: Strain ID DSM 17058; potato dextrose broth pH 3.8
[19] = tested on: Enterococcus faecalis; assay: Antimicrobial activity (MIC); details: Strain ID ATCC 7080; potato dextrose broth pH 3.8
[20] = tested on: Zygosaccharomyces rouxii; assay: Antimicrobial activity (MIC); details: Strain ID DSM 7525; potato dextrose broth pH 3.8
[21] = tested on: Bacillus cereus; assay: Antimicrobial activity (MIC); details: Strain ID DSM4490; potato dextrose broth pH 3.8
[22] = tested on: Alternaria alternata; assay: Antimicrobial activity (MIC); details: Strain ID DSM 12633; potato dextrose broth pH 3.8
[23] = tested on: Clostridium sporogenes; assay: Antimicrobial activity (MIC); details: Strain ID ATCC 19404; potato dextrose broth pH 3.8
[24] = tested on: Pseudomonas aeruginosa; assay: Antimicrobial activity (MIC); details: Strain ID DSM 1117; potato dextrose broth pH 3.8
[25] = tested on: Brettanomyces naardenensis; assay: Antimicrobial activity (MIC); details: Strain ID CBS 6115; potato dextrose broth pH 3.8
[26] = tested on: Fusobacterium nucleatum subsp. vincentii; assay: Antimicrobial activity (MIC); details: Strain ID DSM 19507; potato dextrose broth pH 3.8
[27] = tested on: Pseudomonas fluorescens; assay: Antimicrobial activity (MIC); details: Strain ID DSM50337; potato dextrose broth pH 3.8
[28] = tested on: Bacillus licheniformis; assay: Antimicrobial activity (MIC); details: Strain ID DSM 13; potato dextrose broth pH 3.8
[29] = tested on: Penicillium expansum; assay: Antimicrobial activity (MIC); details: Strain ID DSM 62841; potato dextrose broth pH 3.8
[30] = tested on: Lactobacillus plantarum ssp. plantarum; assay: Antimicrobial activity (MIC); details: Strain ID DSM 20174; potato dextrose broth pH 3.8
[31] = tested on: Phanerochaete chrysosporium; assay: Antimicrobial activity (MIC); details: Strain ID DSM 1556; potato dextrose broth pH 3.8
[32] = tested on: Streptococcus mutans; assay: Antimicrobial activity (MIC); details: Strain ID DSM 20523; potato dextrose broth pH 3.8
[33] = tested on: Candida parapsilosis; assay: Antimicrobial activity (MIC); details: Strain ID ATCC 20384; potato dextrose broth pH 3.8
[34] = tested on: Campylobacter jejuni; assay: Antimicrobial activity (MIC); details: Strain ID DSM 4688; potato dextrose broth pH 3.8
[35] = tested on: Byssochlamys fulva; assay: Antimicrobial activity (MIC); details: Strain ID DSM 1808; potato dextrose broth pH 3.8
[36] = tested on: Staphylococcus aureus; assay: Antimicrobial activity (MIC); details: Strain ID DSM 2569; potato dextrose broth pH 3.8
[37] = tested on: Yarrowia lipolytica; assay: Antimicrobial activity (MIC); details: Strain ID DSM 70561; potato dextrose broth pH 3.8
[38] = tested on: Botrytis cinerea; assay: Antimicrobial activity (MIC); details: Strain ID DSM 5145; potato dextrose broth pH 3.8
[39] = tested on: Aspergillus brasiliensis; assay: Antimicrobial activity (MIC); details: Strain ID DSM 1988; potato dextrose broth pH 3.8
[40] = tested on: Pasteurella multocida ssp. multocida; assay: Antimicrobial activity (MIC); details: Strain ID DSM 16031; potato dextrose broth pH 3.8

Compound | Minimal Inhibitory Concentration (MIC) [1] | Minimal Inhibitory Concentration (MIC) [2] | Minimal Inhibitory Concentration (MIC) [3] | Minimal Inhibitory Concentration (MIC) [4] | Minimal Inhibitory Concentration (MIC) [5] | Minimal Inhibitory Concentration (MIC) [6] | Minimal Inhibitory Concentration (MIC) [7] | Minimal Inhibitory Concentration (MIC) [8] | Minimal Inhibitory Concentration (MIC) [9] | Minimal Inhibitory Concentration (MIC) [10] | Minimal Inhibitory Concentration (MIC) [11] | Minimal Inhibitory Concentration (MIC) [12] | Minimal Inhibitory Concentration (MIC) [13] | Minimal Inhibitory Concentration (MIC) [14] | Minimal Inhibitory Concentration (MIC) [15] | Minimal Inhibitory Concentration (MIC) [16] | Minimal Inhibitory Concentration (MIC) [17] | Minimal Inhibitory Concentration (MIC) [18] | Minimal Inhibitory Concentration (MIC) [19] | Minimal Inhibitory Concentration (MIC) [20] | further results
Transsylvanoside H [C, Transsylvanoside H [174423-50-8]] | > 80 µg/mL | > 80 µg/mL | 40 µg/mL | > 80 µg/mL | 80 µg/mL | > 80 µg/mL | > 80 µg/mL | > 80 µg/mL | > 80 µg/mL | > 80 µg/mL | > 80 µg/mL | 140 µg/mL | > 80 µg/mL | > 80 µg/mL | > 80 µg/mL | > 80 µg/mL | > 80 µg/mL | > 80 µg/mL | > 80 µg/mL | 500 µg/mL | Minimal Inhibitory Concentration (MIC) [21]: > 80 µg/mL; Minimal Inhibitory Concentration (MIC) [22]: > 80 µg/mL; Minimal Inhibitory Concentration (MIC) [23]: 80 µg/mL; Minimal Inhibitory Concentration (MIC) [24]: > 80 µg/mL; Minimal Inhibitory Concentration (MIC) [25]: > 80 µg/mL; Minimal Inhibitory Concentration (MIC) [26]: 80 µg/mL; Minimal Inhibitory Concentration (MIC) [27]: > 80 µg/mL; Minimal Inhibitory Concentration (MIC) [28]: > 80 µg/mL; Minimal Inhibitory Concentration (MIC) [29]: >500 µg/mL; Minimal Inhibitory Concentration (MIC) [30]: 40 µg/mL; Minimal Inhibitory Concentration (MIC) [31]: > 80 µg/mL; Minimal Inhibitory Concentration (MIC) [32]: > 80 µg/mL; Minimal Inhibitory Concentration (MIC) [33]: > 80 µg/mL; Minimal Inhibitory Concentration (MIC) [34]: > 80 µg/mL; Minimal Inhibitory Concentration (MIC) [35]: > 80 µg/mL; Minimal Inhibitory Concentration (MIC) [36]: > 80 µg/mL; Minimal Inhibitory Concentration (MIC) [37]: > 80 µg/mL; Minimal Inhibitory Concentration (MIC) [38]: > 80 µg/mL; Minimal Inhibitory Concentration (MIC) [39]: > 80 µg/mL; Minimal Inhibitory Concentration (MIC) [40]: > 80 µg/mL
C[C@@H]1O[C@@H](O[C@H]2[C@H](O[C@H]3CC[C@@]4(C)C(CC[C@]5(C)[C@@H]4CC=C4[C@H]6CC(C)(C)CC[C@]6(C(=O)O)CC[C@]45C)C3(C)CO)OC[C@H](O)[C@@H]2O[C@@H]2OC[C@H](O)[C@H](O)[C@H]2O)[C@H](O)[C@H](O)[C@H]1O (some centres unmarked) [B, Clemontanoside C [80666-65-5]] | > 80 µg/mL | > 80 µg/mL | 140 µg/mL | > 80 µg/mL | > 80 µg/mL | 80 µg/mL | > 80 µg/mL | > 80 µg/mL | > 80 µg/mL | > 80 µg/mL | > 80 µg/mL | 40 µg/mL | > 80 µg/mL | > 80 µg/mL | > 80 µg/mL | > 80 µg/mL | > 80 µg/mL | > 80 µg/mL | > 80 µg/mL | 500 µg/mL | Minimal Inhibitory Concentration (MIC) [21]: > 80 µg/mL; Minimal Inhibitory Concentration (MIC) [22]: > 80 µg/mL; Minimal Inhibitory Concentration (MIC) [23]: 80 µg/mL; Minimal Inhibitory Concentration (MIC) [24]: > 80 µg/mL; Minimal Inhibitory Concentration (MIC) [25]: > 80 µg/mL; Minimal Inhibitory Concentration (MIC) [26]: > 80 µg/mL; Minimal Inhibitory Concentration (MIC) [27]: > 80 µg/mL; Minimal Inhibitory Concentration (MIC) [28]: > 80 µg/mL; Minimal Inhibitory Concentration (MIC) [29]: >500 µg/mL; Minimal Inhibitory Concentration (MIC) [30]: 400 µg/mL; Minimal Inhibitory Concentration (MIC) [31]: > 80 µg/mL; Minimal Inhibitory Concentration (MIC) [32]: > 80 µg/mL; Minimal Inhibitory Concentration (MIC) [33]: > 80 µg/mL; Minimal Inhibitory Concentration (MIC) [34]: > 80 µg/mL; Minimal Inhibitory Concentration (MIC) [35]: > 80 µg/mL; Minimal Inhibitory Concentration (MIC) [36]: > 80 µg/mL; Minimal Inhibitory Concentration (MIC) [37]: > 80 µg/mL; Minimal Inhibitory Concentration (MIC) [38]: > 80 µg/mL; Minimal Inhibitory Concentration (MIC) [39]: > 80 µg/mL; Minimal Inhibitory Concentration (MIC) [40]: > 80 µg/mL
